Data reported in patent USRE38460E1 (priority 1994, dated 2004).
Read-outs that look alike come from different tables or passages of the source.

Assays:
[1] = molecular target: T1, butyrylcholinesterase (BuChE) (Rattus norvegicus, UniProt Q9JKC1); test: In-vitro anticholinesterase effect, colorimetric method (Ellman), BuChE from rat's serum; type: biochemical; settings: for inhibition effect on butyrylcholinesterase (pseudo enzyme) compared with huperzine A: see Tables 1, 2 and 6
T1 construct: from tissue; host or cells: rat serum
T1 sequence (Q9JKC1 24-597): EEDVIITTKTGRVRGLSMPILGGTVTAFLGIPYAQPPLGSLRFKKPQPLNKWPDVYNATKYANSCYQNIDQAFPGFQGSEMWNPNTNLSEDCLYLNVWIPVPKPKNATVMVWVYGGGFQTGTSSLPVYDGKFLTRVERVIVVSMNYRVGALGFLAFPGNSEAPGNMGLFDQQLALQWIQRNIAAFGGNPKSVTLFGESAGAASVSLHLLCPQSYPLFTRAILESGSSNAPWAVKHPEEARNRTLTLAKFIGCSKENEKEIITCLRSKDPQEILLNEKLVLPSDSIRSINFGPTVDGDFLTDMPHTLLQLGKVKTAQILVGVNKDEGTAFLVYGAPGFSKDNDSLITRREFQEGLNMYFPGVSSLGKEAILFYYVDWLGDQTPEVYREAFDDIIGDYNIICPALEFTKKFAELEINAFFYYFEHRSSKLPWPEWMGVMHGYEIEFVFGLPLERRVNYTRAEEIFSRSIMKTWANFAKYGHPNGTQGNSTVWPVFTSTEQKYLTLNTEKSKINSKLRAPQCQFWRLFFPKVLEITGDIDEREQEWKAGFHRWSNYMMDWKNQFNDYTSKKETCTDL
Description: (§1) In the present invention a calorimetric method reported by Ellman was used to determine the effect of inhibition of the pharmaceutical on enzyme activity. The total volume of the solution of the enzyme activity reaction was 4 ml, which contained 0.3 mmol/L of acetylcholin iodide (acetylcholinesterase substrate), or 0.4 mmol/L of butyrylcholin iodide (butyrylcholinesterase substrate), 1 ml of the buffer solution of 25 mmol/L of phosphate of pH 7.4, and water to make up to 4 ml (including the amount of the enzyme solution and the testing reagent added afterwards). After the solution was kept at 37° C. for 5 minutes, 0.1-0.2 ml of enzyme solution (red cell membrane or serum of rat) was added, or 0.1-0.3 ml of the testing reagent was added at the same time. The solution was kept at the same temperature for another 8 minutes. Then 1 ml of 3% of sodium lauryl sulphate was added to terminate the reaction. Finally 1 ml of 0.2% 5,5-dithio-2,2′-nitro-benzoic acid solution was added for developing.
(§2) AChE taken from rat's red cell membrane. BuChE taken from rat's serum.
(§3) AChE taken from homogenate of rat's cortex. BuChE taken from rat's serum.

[2] = molecular target: T2, acetylcholinesterase (AChE) (Rattus norvegicus, UniProt P37136); test: biochemical; type: biochemical; settings: for IC50 / IC50 ratio BuChE/AChE: Table 1; for IC50: AChE taken from rat's red cell membrane; for IC50 ratio BuChE/AChE: red cell membrane AChE, serum BuChE; for inhibition effect on acetylcholinesterase (in words) / inhibition effect on acetylcholinesterase compared with huperzine A / inhibition effect on acetylcholinesterase compared with physostigmine and galanthamine: see Tables 1, 2 and 6
T2 construct: from tissue; host or cells: rat red cell membrane
Description: as §1, §2
T2 sequence (P37136 other isoform, or with tags, fused parts or gaps): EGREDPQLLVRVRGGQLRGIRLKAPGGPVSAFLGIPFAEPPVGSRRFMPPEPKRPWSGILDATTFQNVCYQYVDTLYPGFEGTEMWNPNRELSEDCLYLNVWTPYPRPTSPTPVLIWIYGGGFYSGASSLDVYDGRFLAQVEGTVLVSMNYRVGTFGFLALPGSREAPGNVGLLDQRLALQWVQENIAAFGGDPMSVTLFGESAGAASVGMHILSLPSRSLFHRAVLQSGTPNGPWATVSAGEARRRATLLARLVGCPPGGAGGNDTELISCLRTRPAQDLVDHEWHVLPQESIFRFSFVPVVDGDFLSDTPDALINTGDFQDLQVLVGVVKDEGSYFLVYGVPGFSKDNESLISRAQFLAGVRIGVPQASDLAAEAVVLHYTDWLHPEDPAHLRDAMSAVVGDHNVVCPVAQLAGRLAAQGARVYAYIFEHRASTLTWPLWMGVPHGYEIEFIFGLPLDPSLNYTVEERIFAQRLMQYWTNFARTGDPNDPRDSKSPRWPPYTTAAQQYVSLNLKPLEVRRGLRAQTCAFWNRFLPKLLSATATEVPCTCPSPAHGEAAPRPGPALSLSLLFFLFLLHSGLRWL

[3] = system: memory impairment caused by scopolamine; test: 8-arm maze spatial distinction operation of rat, memory impairment caused by scopolamine; type: in vivo; settings: for effect on improving memory (in words): 8-arm maze spatial distinction operation of rat, compared with compound of formula (I); for No. of mistakes in operation before reaching the standard, reference memory (X + SEM) / No. of mistakes in operation before reaching the standard, working memory (X + SEM): rats, 8-arm maze
[4] = system: memory impairment caused by scopolamine; test: Mouse passive escape operation (platform jumping method), memory impairment caused by scopolamine; type: in vivo, mice; settings: for delitescence of get-down (sec ± SEM): mice, tested after 24 hours; for effect on improving memory (in words): mouse passive escape operation, compared with compound of formula (I)
[5] = Critical toxicity on mice (Bliss method); type: in vivo; settings: mouse, in vivo, po, mice, p.o., Bliss method, mortality within 7 days
Description: (§4) Test of each pharmaceutical was carried out using 4-5 dosage group.
(§5) Mortality within 7 days was observed.

mice = test: Critical toxicity on mice (Bliss method); type: in vivo; settings: for LD50 relative to that of the compound of formula (I): mice; for critical toxicity compared with compound (I): mouse, in vivo
Description: as §4, §5

[6] = molecular target: T3, acetylcholinesterase (AChE) (Rattus norvegicus, UniProt P37136); test: biochemical; type: biochemical; settings: Table 2; for IC50: AChE taken from homogenate of rat's cortex; for IC50 ratio BuChE/AChE: cortex AChE, serum BuChE
T3 construct: from tissue; host or cells: homogenate of rat cortex
T3 sequence (P37136 32-614): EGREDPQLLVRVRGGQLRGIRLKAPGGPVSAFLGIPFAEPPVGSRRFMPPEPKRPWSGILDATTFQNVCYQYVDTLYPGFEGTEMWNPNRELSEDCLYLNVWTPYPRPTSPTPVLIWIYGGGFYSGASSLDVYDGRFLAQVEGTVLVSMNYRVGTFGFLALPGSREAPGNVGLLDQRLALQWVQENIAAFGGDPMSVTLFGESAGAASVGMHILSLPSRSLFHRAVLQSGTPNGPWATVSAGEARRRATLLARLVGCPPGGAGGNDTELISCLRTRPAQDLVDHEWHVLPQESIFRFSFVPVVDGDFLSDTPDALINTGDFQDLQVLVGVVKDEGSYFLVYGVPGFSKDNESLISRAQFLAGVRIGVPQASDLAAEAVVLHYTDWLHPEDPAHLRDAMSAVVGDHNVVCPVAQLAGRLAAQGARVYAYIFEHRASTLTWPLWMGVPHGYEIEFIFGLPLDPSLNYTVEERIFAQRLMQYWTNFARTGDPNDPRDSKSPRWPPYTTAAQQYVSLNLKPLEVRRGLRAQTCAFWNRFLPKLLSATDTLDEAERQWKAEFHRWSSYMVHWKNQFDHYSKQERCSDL
Description: as §1, §3

acetylcholinesterase = molecular target: T4, acetylcholinesterase (Rattus norvegicus, UniProt P37136); test: Study on kinetics of enzyme; type: biochemical
T4 sequence (P37136 32-614): T3 sequence (P37136 32-614)
Description: In the present invention a calorimetric method reported by Ellman was used to determine the effect of inhibition of the pharmaceutical on enzyme activity. The total volume of the solution of the enzyme activity reaction was 4 ml, which contained 0.3 mmol/L of acetylcholin iodide (acetylcholinesterase substrate), or 0.4 mmol/L of butyrylcholin iodide (butyrylcholinesterase substrate), 1 ml of the buffer solution of 25 mmol/L of phosphate of pH 7.4, and water to make up to 4 ml (including the amount of the enzyme solution and the testing reagent added afterwards). After the solution was kept at 37° C. for 5 minutes, 0.1-0.2 ml of enzyme solution (red cell membrane or serum of rat) was added, or 0.1-0.3 ml of the testing reagent was added at the same time. The solution was kept at the same temperature for another 8 minutes. Then 1 ml of 3% of sodium lauryl sulphate was added to terminate the reaction. Finally 1 ml of 0.2% 5,5-dithio-2,2′-nitro-benzoic acid solution was added for developing. “721” spectrophotometer was used to determine the density of light at 440 nm. A solution without addition of the pharmaceutical to inhibit the enzyme activity was used as a control (100%).

BuChE = molecular target: T5, BuChE (Rattus norvegicus, UniProt Q9JKC1); test: In-vitro anticholinesterase effect (Table 6), BuChE; type: biochemical; settings: read-out: inhibition activity BuChE at 10(μM)
T5 construct: from tissue; host or cells: rat serum
T5 sequence (Q9JKC1 24-597): as the sequence (Q9JKC1 24-597) above
Description: as §1

AChE = molecular target: T6, AChE (Rattus norvegicus, UniProt P37136); test: biochemical; settings: Table 6
T6 construct: 0.1-0.2 ml of enzyme solution (red cell membrane or serum of rat) was added; from tissue; host or cells: rat tissue
T6 sequence (P37136 32-614): T3 sequence (P37136 32-614)
Description: as §1

[7] = scopolamine + derivative 0.2 ± 0.1 mg/kg ip + po
[8] = scopolamine + derivative 0.2 ± 0.3 mg/kg ip + po
[9] = scopolamine + derivative 2 + 0.2 mg/kg ip + po
[10] = scopolamine + derivative 2 + 0.4 mg/kg ip + po
[11] = first of two columns headed LD50, read-out: LD50 (first column) (95% confidence limit)
[12] = second of two columns headed LD50, read-out: LD50 (second column) (95% confidence limit)
[13] = scopolamine + derivative 0.124 + 0.2 mg/kg ip + po

SMILES | IC50 [1] | inhibition effect on butyrylcholinesterase (pseudo enzyme) compared with huperzine A [1] | inhibitor of acetylcholinesterase (summary in words) [2] | IC50 [2] | IC50 ratio BuChE/AChE [2] | inhibition effect on acetylcholinesterase (in words) [2] | inhibition effect on acetylcholinesterase compared with huperzine A [2] | inhibition effect on acetylcholinesterase compared with physostigmine and galanthamine [2] | effect on improving memory (in words) [3] | delitescence of get-down (sec ± SEM) [4, 9] | delitescence of get-down (sec ± SEM) [4, 10] | effect on improving memory (in words) [4] | LD50 [5, 11] | LD50 [5, 12] | LD50 relative to that of the compound of formula (I) (mice) | critical toxicity compared with compound (I) (mice) | IC50 [6] | IC50 ratio BuChE/AChE [6] | combination with acetylcholinesterase (reversibility) (acetylcholinesterase) | also measured
CC=C1C2C=C(C)CC1(N=Cc1c(O)cc(OC)cc1OC)c1ccc(=O)[nH]c1C2 (stereo not drawn) [derivative No. 19] | 105 µM | weaker inhibition effect | highly effective selective inhibitors | 0.145 µM | 722.1 | remarkable inhibition effect | slightly weaker | apparently stronger | very strong effect | 71.6 ± 14.5 s | 92.2 ± 15.5 s | very strong effect | 11.1 mg/kg | 14.1 mg/kg | ⅓ | lower critical toxicity | 0.144 µM | 724.6 | reversible | No. of mistakes in operation before reaching the standard, reference memory (X + SEM) [3, 7]: 1.33 ± 0.21; No. of mistakes in operation before reaching the standard, working memory (X + SEM) [3, 7]: 1.33; No. of mistakes in operation before reaching the standard, reference memory (X + SEM) [3, 8]: 0.33; No. of mistakes in operation before reaching the standard, working memory (X + SEM) [3, 8]: 0.17; delitescence of get-down (sec ± SEM) ([4]; scopolamine + derivative 2 + 0.1 mg/kg ip + po): 48.9 ± 12.6 s; delitescence of get-down (sec ± SEM) ([4]; scopolamine + derivative 2 + 0.3 mg/kg ip + po): 99.8 ± 16.4 s
CC=C1C2C=C(C)CC1(N=Cc1ccc(OC)c(O)c1)c1ccc(=O)[nH]c1C2 (stereo not drawn) [derivative No. 18] | 107 µM | weaker inhibition effect | highly effective selective inhibitors | 0.151 µM | 709.9 | remarkable inhibition effect | slightly weaker | apparently stronger | very strong effect | 67.7 ± 11.7 s | 48.7 ± 6.9 s | very strong effect | 9.6 mg/kg | 14.4 mg/kg | ⅓ | lower critical toxicity | 0.151 µM | 708.2 | reversible | No. of mistakes in operation before reaching the standard, reference memory (X + SEM) [3, 13]: 0.67; No. of mistakes in operation before reaching the standard, working memory (X + SEM) [3, 13]: 0.33; delitescence of get-down (sec ± SEM) ([4]; scopolamine + derivative 3 + 0.3 mg/kg ip + po): 64.0 ± 9.8 s; inhibition at 10 µM (BuChE): 0%; BuChE/AChE (AChE): >500; inhibition at 1 µM (AChE; 1 μM): 90.2%; IC50 (AChE; read-out: inhibition activity AChE IC50): 0.084 µM
